Measured values reported in patent publication US4551472A, “Unsymmetrical bis-carbamate compounds” (priority 1984, dated 1985).
≈ marks a conversion by molar mass, not a printed value.

Tests used:
[1] = tested on: bean aphid (Aphis fabae Scop.); assay: whole plant or invertebrate; details: foliar, read-out: Biological Activity in LD50's: Aphid
Protocol: (§1) The thus-prepared stock suspension contained 0.5 percent by weight of compound. The test concentrations in parts per million by weight employed in the tests described hereinbelow were obtained by appropriate dilutions of the stock suspension with water. The test procedures were as follows:
Adults and nymphal stages of the bean aphid (Aphis fabae Scop.) reared on potted dwarf nasturtium plants at 65°-70° F. and 50-70 percent relative humidity, consistuted with test insects. For testing purposes, the number of aphids per pot was standardized to 100-150 by trimming plants containing excess aphids.
The potted plants (one pot per compound tested) infested with 100-150 aphids, were placed on a revolving turntable and sprayed with 100-110 milliliters of test compound formulation by use of a DeVilbiss spray gun set at 40 psig. air pressure. This application, which lasted 25 seconds, was sufficient to wet the plants to run-off. As a control, 100-110 milliliters of a water-acetone-emulsifier solution containing no test compound were also sprayed on infested plants. […] Temperature and humidity in the test room during the 24 hour holding period were 65°-70° F. and 50-70 percent, respectively. Aphids which fell onto the paper and were unable to remain standing after being uprighted were considered dead. Aphids remaining on the plants were observed closely for movement and those which were unable to move the length of the body upon stimulation by prodding were considered dead. Percent mortality was recorded for various concentration levels.
(§2) In these tests the pesticidal activity of the compounds at the indicated dosage rate against aphid, mite, Southern Armyworm (SA), Mexican Bean Beetle (MBB), and house fly was rated as follows:
(§3) Several of the unsymmetrical bis-carbamoyl sulfide compounds of this invention were tested against related known compounds.

[2] = tested on: two-spotted mite (Tetranychus urticae Koch); assay: whole plant or invertebrate; details: foliar, read-out: Biological Activity in LD50's: Mite
Protocol: as §1
Adults and nymphal stage of the two-spotted mite (Tetranychus urticae Koch), reared on Tendergreen bean plants at a temperature of 80±5° F. and at a relative humidity of 50±5 percent, were the test organisms. Infested leaves from a stock culture were placed on the primary leaves of two bean plants six to eight inches in height, growing in a two-and-a-half inch clay pot. 150-200 Mites, a sufficient number for testing, transferred from the excised leaves to the fresh plants in a period of twenty-four hours. Following the twenty-four hour transfer period, the excised leaves were removed from the infested plants. […] The potted plants (one pot per compound) were placed on a revolving turntable and sprayed with 100-110 milliliters of test compound formulation by use of a DeVilbiss spray gun at 40 psig. air pressure. This application, which lasted 25 seconds, was sufficient to wet the plants to run-off. As a control, 100-110 milliliters of a water solution containing acetone and emulsifier in the same concentrations as the test compound formulation, but containing no test compound, were also sprayed on infested plants. The sprayed plants were held at a temperature of 80±5° F. and a 50±5 percent relative humidity for six days, after which a mortality count of motile forms was made. Microscopic examination for motile forms was made on the leaves of the test plants. Any individual which was capable of locomotion upon prodding was considered living.
as §2, §3

[3] = tested on: southern armyworm (Spodopera eridania, (Cram.)); assay: whole plant or invertebrate; details: Spodoptera eridania, read-out: Biological Activity in LD50's: Southern Armyworm
Protocol: as §1
Larvae of the southern armyworm (Spodopera eridania, (Cram.)), reared on Tendergreen bean plants at a temperature of 80±5° F. and a relative humidity of 50±5 percent, constituted the test insects.
Potted Tendergreen bean plants of standard height and age were placed on a revolving turntable and sprayed with 100-110 milliliters of test compound formulation by use of a DeVilbiss spray gun set at 10 psig air pressure. This application, which lasted 25 seconds, was sufficient to wet plants to run-off. As a control, 100-110 milliliters of a water-acetone-emulsifier solution containing no test compound were also sprayed on infested plants. When dry, the paired leaves were separated and each one was placed in a 9 centimeter Petri dish lined with moistened filter paper. Five randomly selected larvae were introduced into each dish and the dishes were closed. The closed dishes were labeled and held at 80°-85° F. for three days. Although the larvae could easily consume the whole leaf within twenty-four hours, no more food was added. Larvae which were unable to move the length of the body, even upon stimulation by prodding, were considered dead. Percent mortality was recorded for various concentration levels.
as §2, §3

[4] = tested on: Mexican bean beetle (Epilachna varivestis, Muls.); assay: whole plant or invertebrate; details: read-out: Biological Activity in LD50's: MBB
Protocol: as §1
Fourth instar larvae of the Mexican bean beetle (Epilachna varivestis, Muls.), reared on Tendergreen bean plants at a temperature of 80±5° F. and 50±5 percent relative humidity, were the test insects.
Potted Tendergreen bean plants of standard height and age were placed on a revolving turntable and sprayed with 100-110 milliliters of test compound formulation by use of a DeVilbiss strapy gun set at 10 psig air pressure. This application, which lasted 25 seconds, was sufficient to wet plants to run-off. As a control, 100-110 milliliters of a water-acetone-emulsifier solution containing no test compound were also strayed on infested plants. When dry, the paired leaves were separated and each was placed in a 9 centimeter Petri dish lined with moistened filter paper. Five randomly selected larvae were introduced into each dish, and the dishes were closed. The closed dishes were labeled and held at a temperature of 80±5° F. for three days. Although the larvae could easily consume the leaf within 24 to 48 hours, no more food was added. Larvae which were unable to move the length of the body, even upon stimulation, were considered dead.
as §2, §3

[5] = tested on: house flies (Musca domestica, L.); assay: whole plant or invertebrate; details: read-out: Biological Activity in LD50's: Housefly
From the text: as §1
The flies were immobilized individuals, males and females, were transferred to a cage consisting of a standard food strainer about five inches in diameter which was inverted over a wrapping-paper-covered surface. […] Ten milliliters of the test formulation were added to a souffle cup containing a one-inch square of an absorbent cotton pad. This bait cup was introduced and centered on the blotting paper under the food strainer prior to admitting the anesthetized flies. The caged flies were allowed to feed on the bait for twenty-four hours, at a temperature of 80±5° F. and the relative humidity of 50±5 percent.
as §2, §3

[6] = tested on: root-knot nematode, Meloidogyne incognita var. acrita; assay: Nematocide Test; further: key: 1: severe galling, equal to untreated plants; 2: moderate galling; 3: light galling; 4: very light galling; 5: no galling, perfect control; type: in vivo; details: 3.33 m.g. per jar; cucumber, approximately 3 weeks
In short: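 Larvae hatched in soil inoculated with chopped infested cucumber roots (one week, room temperature), then treated with acetone/emulsifier/water formulation, primary screen 3.33 mg compound per jar, and held capped 48 h. Soil then potted and sown to cucumber for about 3 weeks; root galling rated visually.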

[7] = tested on: rat; assay: Mammalian Toxicity, peroral toxicity to rat; type: in vivo
Protocol: Certain compounds were also evaluated to determine their peroral toxicity to mammals by conventional methods. The representative animal selected for this experiment was the rat.

[8] = tested on: Soy; assay: Phytotoxicity Test, soy; details: 2500 ppm spray, ten days
Protocol: (§4) Experiments were also conducted to determine the phytotoxicity of representative compounds with respect to healthy fresh plants. […] The test plants were sprayed in accordance with the procedure described above for the Mite Foliage Spray Test so as to deliver approximately 100 milliliters of test solution to the leaves of each plant tested. The sprayed plants and controls were set aside for approximately one hour to allow the foliage to dry and were then placed in the greenhouse. After ten days the plants were visually inspected to determine the extent of foliage injury. A rating of 1 indicates no perceptible injury; 5 indicates the plant was dead and ratings of 2, 3 and 4 indicate intermediate degrees of injury based upon the number and extent to which leaves were injured.

[9] = tested on: Bean; assay: Phytotoxicity Test, bean; details: 2500 ppm spray, ten days
Protocol: as §4

[10] = tested on: Corn; assay: Phytotoxicity Test, corn; details: 2500 ppm spray, ten days
[11] = tested on: Tom; assay: Phytotoxicity Test, tomato; details: 2500 ppm spray, ten days
[12] = tested on: Cotton; assay: Phytotoxicity Test, cotton; details: 2500 ppm spray, ten days
Protocol: as §4

For `CNC(=O)Oc1ccc(C(C)(C)C)cc1`, the LC50 [1] was greater than 500 µg/mL, the LC50 [2] was greater than 500 µg/mL and the LC50 [3] was greater than 500 µg/mL. It also gave an LC50 [4] greater than 500 µg/mL and an LC50 [5] greater than 500 µg/mL.
`CN(SN(C)C(=O)Oc1ccc(C(C)(C)C)cc1)C(=O)Oc1ccc(C(C)(C)C)cc1` gave an LC50 [1] greater than 500 µg/mL, an LC50 [2] greater than 500 µg/mL and an LC50 [3] greater than 500 µg/mL. The LC50 [4] was greater than 500 µg/mL and the LC50 [5] was greater than 500 µg/mL.
For `CC(C)c1cccc(OC(=O)N(C)SN(C)C(=O)Oc2cccc(C(C)C)c2)c1`, the LC50 [1] was 70 µg/mL (≈ 168 µM), the LC50 [2] was greater than 500 µg/mL and the LC50 [3] was 62 µg/mL (≈ 149 µM). It also gave an LC50 [4] of 11 µg/mL (≈ 26.4 µM) and an LC50 [5] of 150 µg/mL (≈ 360 µM).
With `CN(SN(C)C(=O)Oc1cccc2ccccc12)C(=O)Oc1cccc2ccccc12` the LC50 [1] was greater than 500 µg/mL, the LC50 [2] was greater than 500 µg/mL and the LC50 [3] was 80 µg/mL (≈ 185 µM). It also gave an LC50 [4] of 6 µg/mL (≈ 13.9 µM) and an LC50 [5] greater than 500 µg/mL.
`CNC(=O)ON=C1SC(C)(C)C(=O)N1C` gave an LC50 [1] of 160 µg/mL (≈ 692 µM), an LC50 [2] of 280 µg/mL (≈ 1210 µM) and an LC50 [3] of 30 µg/mL (≈ 130 µM). For the same compound, the LC50 [4] was 6 µg/mL (≈ 25.9 µM) and the LC50 [5] was 25 µg/mL (≈ 108 µM).
For `CSC(C)=NOC(=O)N(C)SN(C)C(=O)Oc1ccc(C(C)(C)C)cc1` [drawing 80], the LC50 [1] was 40 µg/mL (≈ 100 µM), the LC50 [2] was greater than 500 µg/mL and the LC50 [3] was 7 µg/mL (≈ 17.5 µM). It also gave an LC50 [4] of 9 µg/mL (≈ 22.5 µM) and an LC50 [5] of 35 µg/mL (≈ 87.6 µM).
Work on `CSC(C)=NOC(=O)N(C)SN(C)C(=O)Oc1cccc(C(C)C)c1` [drawing 83] yielded an LC50 [1] of 50 µg/mL (≈ 130 µM), an LC50 [2] of 500 µg/mL (≈ 1300 µM) and an LC50 [3] of 9 µg/mL (≈ 23.3 µM). For the same compound, the LC50 [4] was 9 µg/mL (≈ 23.3 µM) and the LC50 [5] was 15 µg/mL (≈ 38.9 µM).
Work on `CSC(C)=NOC(=O)N(C)SN(C)C(=O)Oc1cccc2ccccc12` [drawing 86] yielded an LC50 [1] of 8 µg/mL (≈ 20.3 µM), an LC50 [2] of 500 µg/mL (≈ 1270 µM) and an LC50 [3] of 6 µg/mL (≈ 15.2 µM). For the same compound, the LC50 [4] was 3 µg/mL (≈ 7.62 µM) and the LC50 [5] was 24 µg/mL (≈ 61 µM).
Work on `CN(SN(C)C(=O)ON=C1SC(C)(C)C(=O)N1C)C(=O)ON=C1CSCCS1` [drawing 88] yielded an LC50 [1] greater than 500 µg/mL, an LC50 [2] of 6 µg/mL (≈ 12.8 µM) and an LC50 [3] of 29 µg/mL (≈ 62 µM). The LC50 [4] was 22 µg/mL (≈ 47 µM) and the LC50 [5] was 2 µg/mL (≈ 4.28 µM).
With “N-[1-Methylthioacetaldehyde O-(N-methylcarbamoyl)oxime]N-[3-(and 4)-isopropylphenyl-(N-methylcarbamoyloxy)]sulfide [XVII]” the “Biological Activity: Nem (nematode, galling rating)” value [6] was 4, the “A.O. Rat LD50” value [7] was 126.0 Mg/Kg and the “Phytotoxicity: Soy” value [8] was 1. For the same compound, the “Phytotoxicity: Bean” value [9] was 1, the “Phytotoxicity: Corn” value [10] was 1 and the “Phytotoxicity: Tom” value [11] was 1. The “Phytotoxicity: Cotton” value [12] was 1.
